Literature values, collected in PMC6264278, “Corydaline Inhibits Multiple Cytochrome P450 and UDP-Glucuronosyltransferase Enzyme Activities in Human Liver Microsomes” (Molecules, 2011).

Assays:
CYP2D6 = tested on: CYP2D6; design: method as in PMID 21425377, PMID 14570772; settings: read-out: IC50, inhibitory effect on CYP2D6 activity; cited from earlier work
UGT1A9 = tested on: UGT1A9; design: method as in PMID 21245288; settings: read-out: Ki, UGT1A9 inhibition; cited from earlier work
CYP2C9 = settings: read-out: IC50, CYP2C9 inhibition; cited from earlier work

SMILES	IC50 (CYP2D6)	further results
COc1ccc2cc3[n+](cc2c1OC)CCc1cc2c(cc1-3)OCO2 [berberine]	49.4 µM	
O=C(O)c1cccnc1Nc1cccc(C(F)(F)F)c1 [niflumic acid]		Ki (UGT1A9): 0.1 to 0.4 µM
COc1cc2c(cc1OC)-c1cc3ccc(OC)c(OC)c3c[n+]1CC2 [palmatine]	92.6 µM	
